Columns and labels:
[1] = test system: A549, H1299, H23, and H460; assay: MTS viability assay, 72 h, lines with high DDX3 expression; assay type: cell-based; settings: range over A549, H1299, H23, H460
Protocol: Proliferation was determined by counting cancer cells over time. Cells were seeded at 7.5 × 10^4 cells/well and counted daily with a TC10 automated cell counter (Bio-Rad, Hercules, CA, USA) at least three times. Viability of cancer cells was determined by MTS assay (CellTiter 96® AQueous One Solution, Promega, Madison, WI, USA) as described by the manufacturer. Briefly, 800–2,000 cells were allowed to attach overnight in a 96-well plate, treated with different concentrations of RK-33 and kept for 72 h. MTS reagent was kept for 2 h. Each experiment was repeated a minimum of three independent times.

[2] = design: species or system SCID mice; settings: mouse, in vivo
Protocol: Figure 5 Toxicity studies of RK-33 in mice • Following injection of 20 mg/kg of RK-33, twice a week for 7 weeks, extensive histopathological examination was carried out following necropsy. Identical patterns were observed both in the control and in the treated mice (n = 2). Samples were stained with H&E. Scale bar is 50 μm. • Pharmacokinetics of RK-33 in SCID mice at various time intervals. Results are mean ± SD from 5 mice. LC-MS/MS method was used to determine concentration of RK-33 in mouse plasma and tissue. • Liquid chromatography–mass spectrometry (LC-MS/MS) analysis was performed to determine different metabolites of RK-33. • RK-33 and metabolites characterized by LC-MS/MS in human liver microsomes using the scan mode function of the LC-MS/MS. • HAPI cells were treated with RK-33 (10 μM), HA14-1 (25 μM), or DMSO vehicle, followed by oligomycin (oligo, 0.5 μg/ml), FCCP (3 μM), and antimycin A (AA, 1 μM) while oxygen consumption rate (OCR) was measured. Pyruvate (10 mM) was added in combination with FCCP to ensure that substrate supply was not rate-limiting for maximal OCR. Data are mean ± SD from 2 to 3 wells and representative of independent experiments performed with two different HAPI passages. […] Significance was assessed by two-sided, unpaired t-test. […]

[3] = test system: A549 human lung cancer cells; assay: Orthotopic A549 lung cancer model with radiation; assay type: in vivo, athymic NCr-nu/nu mice; settings: i.p. RK-33 with radiation, schedule as Fig6C
Protocol: Athymic NCr-nu/nu female mice 4–5 weeks old were purchased from NCI Frederick. A total of 1 × 10^6 A549 cells were injected in the tail vein of ten mice. Treatment (five animals per group) was started 4 weeks after inoculation of tumor cells. Since tumor volumes could not be determined by micro-CT, tumor burden was established at necropsy by histopathology, 8 weeks after inoculation of tumor cells. All five lung lobes were paraffin-embedded and mid-lung sections were stained with H&E. Slides were digitalized; lung and tumor surface area was calculated with ImageScope (Aperio Technologies, Vista, CA, USA), as tumor burden = tumor surface/lung surface.
Cells were irradiated at room temperature with 0.5 Gy/min to the desired dose using a Gammacell 40 ^137Cs irradiator. For in vivo experiments, mice were treated using the Small Animal Radiation Research Platform (Wong et al, [2008]). The tumors were irradiated with a circular beam of 1 cm diameter.

[4] = test system: TCF4 activity in A549 cells; assay: TCF reporter assay (TOP/FOP-FLASH); assay type: cell-based, human; settings: 0, 1, 2, and 3 μM; wild-type and β-catenin-overexpressing cells
Protocol: Transcriptional activity of TCF4 was assayed using the dual luciferase assay (Promega, Madison, WI, USA) according to the manufacturer's instructions. Briefly, 1.5 × 10^4 A549 or H1299 cells were transfected with 500 ng of TOP-FLASH and control FOP-FLASH constructs along with 50 ng of phRL Renilla constructs as transfection controls as well as with 500 ng β-catenin constructs when indicated. Cells were cultured for 24 h and then lysed in passive lysis buffer. Luminescence was detected using a luminometer (Berthold Sirius, Oak Ridge, TN, USA). Relative TCF4 promoter activity was calculated by dividing firefly luminescence by Renilla luminescence, and then normalized TOP-FLASH was divided by normalized FOP-FLASH, which was finally normalized to vector or DMSO control cells. All experiments were repeated three times, and differences were assessed by the paired t-test.

A549 = assay: Annexin V / PI flow cytometry, 72 h; assay type: cell-based, human
Protocol: Histograms depicting early apoptosis (Annexin V positive) and late apoptosis (PI positive) in cells treated with the indicated amounts of RK-33. Cells were either treated with DMSO (controls) or IC50 and IC75 amounts of RK-33. After 72 hours incubation, cells were harvested and stained for Annexin V and PI and analyzed by flow cytometry.

diimidazo[4,5-d:4′,5′-f]-[1,3]diazepine [RK-33]
IC50 [1]: 4.4 to 8.4 µM | accumulation in organs (biodistribution) [2]: able to accumulate at therapeutic dose in various organs | enhancement of radiation-induced tumor regression (tumor burden) [3]: 2.6 fold | TCF activity [4]: reduced TCF activity significantly | cells in gate of Annexin V/PI plot (A549; 9 uM, first (upper) value of panel): 81.7 | cells in gate of Annexin V/PI plot (A549; 9 uM, second value of panel): 4.44 | cells in gate of Annexin V/PI plot (A549; 9 uM, third (lowest) value of panel): 4.73 | cells in gate of Annexin V/PI plot (A549; 10.5 uM, first (upper) value of panel): 85.3 | cells in gate of Annexin V/PI plot (A549; 10.5 uM, second value of panel): 5.99 | cells in gate of Annexin V/PI plot (A549; 10.5 uM, third (lowest) value of panel): 2.26
